Measurements from BindingDB's records for doi:10.1007/s00044-008-9125-0 (n/a, 2009).

Experiment: Inhibition of Bos taurus (bovine) heart cAMP-dependent phosphodiesterase assessed as inhibition of cyclic AMP to 5' AMP after 20 min by spectrophotometry

SMILES | IC50 [µM]
O=c1c2ccccc2nc(-c2ccccc2)n1-c1nc2ccc([N+](=O)[O-])cc2s1 | 2640
CCOc1ccc2sc(-n3c(-c4ccccc4)nc4c(Br)cc(Br)cc4c3=O)nc2c1 | 2150
Cc1ccc2sc(-n3c(-c4ccccc4)nc4ccccc4c3=O)nc2c1 | 2270
COc1ccc2sc(-n3c(-c4ccccc4)nc4ccccc4c3=O)nc2c1 | 2330
COc1ccc2nc(-n3c(-c4ccccc4)nc4c(Br)cc(Br)cc4c3=O)sc2c1 | 2120
CCOc1cccc2sc(-n3c(-c4ccccc4)nc4ccccc4c3=O)nc12 | 2420
CCOc1ccc2nc(-n3c(-c4ccccc4)nc4ccccc4c3=O)sc2c1 | 2430
Cc1ccc2sc(-n3c(-c4ccccc4)nc4c(Br)cc(Br)cc4c3=O)nc2c1 | 2020
CCOc1cccc2sc(-n3c(-c4ccccc4)nc4c(Br)cc(Br)cc4c3=O)nc12 | 2160
O=c1c2cc(Br)cc(Br)c2nc(-c2ccccc2)n1-c1nc2ccc([N+](=O)[O-])cc2s1 | 1520
O=c1c2cc(Br)cc(Br)c2nc(-c2ccccc2)n1-c1nc2cc(Cl)ccc2s1 | 1440
COc1ccc2sc(-n3c(-c4ccccc4)nc4c(Br)cc(Br)cc4c3=O)nc2c1 | 2090
COc1cccc2sc(-n3c(-c4ccccc4)nc4c(Br)cc(Br)cc4c3=O)nc12 | 2070
O=c1c2cc(Br)cc(Br)c2nc(-c2ccccc2)n1-c1nc2ccccc2s1 | 1930
O=c1c2ccccc2nc(-c2ccccc2)n1-c1nc2ccc(Br)cc2s1 | 2130
O=c1c2ccccc2nc(-c2ccccc2)n1-c1nc2cc(Cl)ccc2s1 | 2110
COc1cccc2sc(-n3c(-c4ccccc4)nc4ccccc4c3=O)nc12 | 2320
O=c1c2ccccc2nc(-c2ccccc2)n1-c1nc2ccccc2s1 | 2100
COc1ccc2nc(-n3c(-c4ccccc4)nc4ccccc4c3=O)sc2c1 | 2420
Cc1cc(C)c2nc(-n3c(-c4ccccc4)nc4c(Br)cc(Br)cc4c3=O)sc2c1 | 2070
Cc1cccc2sc(-n3c(-c4ccccc4)nc4c(Br)cc(Br)cc4c3=O)nc12 | 2030
Cc1cc(C)c2nc(-n3c(-c4ccccc4)nc4ccccc4c3=O)sc2c1 | 2410
Cc1cccc2sc(-n3c(-c4ccccc4)nc4ccccc4c3=O)nc12 | 2280
CCOc1ccc2nc(-n3c(-c4ccccc4)nc4c(Br)cc(Br)cc4c3=O)sc2c1 | 2120
CCOc1ccc2sc(-n3c(-c4ccccc4)nc4ccccc4c3=O)nc2c1 | 2490
O=c1c2cc(Br)cc(Br)c2nc(-c2ccccc2)n1-c1nc2ccc(Br)cc2s1 | 1640
